Source: article PMC2989597 (Current topics in medicinal chemistry, 2009)

Key:
AmpC β-lactamase = conditions: cited from earlier work
α-glucosidase = conditions: cited from earlier work
Microsomal stability = assay type: in vitro ADME; conditions: rat
Caco-2 = Caco-2 permeability; assay type: in vitro ADME
[1] = test system: β-N-acetylflucosaminidase; conditions: cited from earlier work
Plasma protein binding = assay type: in vitro ADME; conditions: low free fraction
Cyp = Cyp inhibition; assay type: in vitro ADME
α-galactosidase = conditions: cited from earlier work
glucocerebrosidase (GC) = conditions: native GC; cited from earlier work
N370S mutant GC = N370S mutant GC fibroblasts, 40 μM; cited from earlier work
Aqueous solubility = assay type: physicochemical
[2] = test system: Thyroid stimulating hormone receptor (TSHR); conditions: AID 926; cited from earlier work
TSHR [3] = conditions: sera from 4 Graves' disease patients, cAMP accumulation; cited from earlier work
[4] = test system: thyroperoxidase mRNA expression; conditions: human thyrocytes, 10 μM and 30 μM; cited from earlier work
TSHR [5] = conditions: cited from earlier work
LHR = conditions: cited from earlier work
S. mansoni adult worms = conditions: 100 μM carboxy-PTIO (NO scavenger); cited from earlier work
S. mansoni TGR = conditions: single 10 μM exposure to 15 nM S. mansoni TGR, NADPH; cited from earlier work

Compound: CC(C)[C@H](NC(=O)OC(C)(C)C)c1nnc(S(=O)(=O)Cc2c(F)cccc2Cl)o1 [NCGC00067197, (S)-tert-butyl 1-(5-(2-chloro-6-fluorobenzylsulfonyl)-1,3,4-oxadiazol-2-yl)-2-methylpropylcarbamate]
- IC50 (AmpC β-lactamase): 16 nM

Compound: Cc1cc(N2CCOCC2)nc2ccc(NC(=O)C3CCCCC3)cc12 [NCGC00092410, N-(4-methyl-2-morpholinoquinolin-6-yl)cyclohexanecarboxamide]
- inhibitory capacity for α-glucosidase (α-glucosidase): no inhibitory capacity
- microsomal stability (Microsomal stability): acceptable
- Caco-2 permeability (Caco-2): acceptable
- inhibitory capacity for β-N-acetylflucosaminidase [1]: no inhibitory capacity
- plasma protein binding (Plasma protein binding): high level
- Cyp inhibition (Cyp): no relevant Cyp inhibition
- inhibitory capacity for α-galactosidase (α-galactosidase): no inhibitory capacity
- Ki (glucocerebrosidase (GC)): 21 nM
- co-localization of mutant GC to the lysosome (N370S mutant GC): co-localization of this mutant form of GC to the lysosome
- aqueous solubility (Aqueous solubility): acceptable

Compound: O=C(O)c1ccc2c(c1)C(=O)N([C@H](Cc1cccc3ccccc13)C(=O)O)C2=O [NCGC00161790, (R)-2-(1-carboxy-2-(naphthalen-1-yl)ethyl)-1,3-dioxoisoindoline-5-carboxylic acid]
- Ki (AmpC β-lactamase): 5 µM

Compound: COc1ccc(C2Nc3ccccc3C(=O)N2Cc2ccccc2)cc1COc1ccc(NC(C)=O)cc1 (centres unmarked) [NCGC00161876, N-(4-(5-(3-benzyl-4-oxo-1,2,3,4-tetrahydroquinazolin-2-yl)-2-methoxybenzyloxy)phenyl)acetamide]
- TSHR agonism in qHTS [2]: agonists

Compound: COC/C=C/c1ccc(-c2nc(SC)nc3sc(C(=O)NC(C)(C)C)c(N)c23)cc1 [NCGC00166332]
- blocking the activity of thyroid-stimulating antibodies (TSHR [3]): capable of blocking
- blocking thyroperoxidase mRNA expression [4]: capable of blocking
- TSHR antagonism (TSHR [5]): antagonist

Compound: COc1cccc(-c2nc(SC)nc3sc(C(=O)NC(C)(C)C)c(N)c23)c1 [Org 41841, reference compound]
- response at TSHR (TSHR [5]; lower potency relative to LHR): agonistic response
- LHR agonism (LHR): highly potent

Compound: N#Cc1c(-c2ccccc2)no[n+]1[O-] [furoxan, 3-cyano-4-phenyl-1,2,5-oxadiazole 2-oxide]
- worm killing potential in the presence of carboxy-PTIO (S. mansoni adult worms): largely mitigated
- NO release (S. mansoni TGR): appreciable amount of NO
